Test: Flour functionality, sensory and physical characteristics after tempering wheat in an organic flour mill (Example 1)
Conditions: 2 L per ton of wheat (citric acid 2 Kg); 16 h hold

Structure (SMILES)	MIXOLAB Stability [min]
O=C(O)CC(O)(CC(=O)O)C(=O)O [Citric acid]	13.5
CC(O)C(=O)O (centres unmarked) [Lactic acid]	17.5
